Earlier results as cited in US20100160306A1, “Acylated Piperidine Derivatives as Melanocortin-4 Receptor Agonists” (priority 2005, published 2010).

Settings: injected intramuscularly or subcutaneously, males with psychogenic erectile dysfunction

## Ac-Nle-c[Asp-His-DPhe-Arg-Trp-Lys]-NH2 [MT-II]
  response rate: 75%
